Columns and labels:
[1] = system: TNBC cell line MDA-MB-231; experiment: Cell viability assay, MDA-MB-231; assay type: cell-based; conditions: Homo sapiens
Caenorhabditis elegans = experiment: C. elegans food clearance toxicity assay; assay type: in vivo; conditions: several concentrations up to 150 μM (MC369 75 μM)
Procedure: In an embodiment, toxicity assessment of the compounds in vivo was performed using Caenorhabditis elegans (C. elegans) as a model. A food clearance-based assay was performed, in which the bacteria consumption over time is a proxy for worm development, health and fertility (FIG. 11). […] Worms were cultivated for 7 days in liquid media using heat-inactivated bacteria (E. coli OP50) as a food source and in the presence of several concentrations of compounds MC421, MC406, MC369 and MC408, MC409, MC407. The rate of food consumption between days 3-5 was used as an indication for worm development, health and also fertility, as after day 3 the worms' progeny will contribute to the faster decline in food abundance. An example is shown for hypothetical compound X. DMSO 1% and 5% are used as negative and positive controls for toxicity, respectively. For this experiment, the compounds were solubilized in DMSO 1% (vehicle). In an embodiment, Bristol strain N2 (provided by the CGC, funded by the NIH Office of Research Infrastructure Programs—P40 OD010440) was used to test each compound's toxicity based on a food clearance assay using C. elegans. The assay was performed on 96-well plates in liquid culture (Voisine et al. 2007; Teixeira-Castro et al. 2015). Each well, with a final volume of 60 μL, comprised the following: approximately 20 worms in egg stage, OP50 bacteria to a final OD of 0.6-0.8 (595 nm) and each compound at the appropriate concentration. The worms were grown with continuous shaking at 180 rpm/20° C. (Shel lab Si series incubator) for 7 days and the absorbance (OD595) was measured daily on a microplate reader (Tecan Infinite M200). The effect of the compounds on C. elegans physiology was monitored by the rate at which the E. coli food suspension was consumed (FIG. 14). Age-synchronized worm eggs were obtained by “egg prep” as follows: adult worms were treated with an alkaline hypochlorite solution (20% bleach, 25% 1M NaOH) for 6 minutes, thereafter centrifuged and washed in M9 buffer twice. The egg pellet was then re-suspended in S-medium to obtain the appropriate egg concentration before being transferred to 96-well plates. The OP50 bacteria was prepared by inactivating an overnight culture (37° C., 180 rpm, Luria Broth media) with 4 freeze-thaw cycles. Before use, the OP50 was re-suspended in supplemented S-medium (cholesterol, streptomycin, penicillin and nystatin). The compounds were prepared in 100% DMSO (Sigma) and diluted up to a test concentration of 1% DMSO to prevent solvent toxicity. For each compound, several concentrations (150-10 μM) were tested, with the exception of MC369 (75-10 μM) due to solubility issues. For each compound, several concentrations were used and the corresponding OD595 consumption rate (slope) for days 3-5 was calculated. The compounds were tested in worms grown in 96 well plates (PlateLayout.xls, Supporting Information), in two independent experiments. For the statistical analysis, the data from both experiments were pooled together and IBM SPSS was used to apply an ANOVA (Brown-Forsythe robust test of equality of means) followed by the Games-Howell post hoc test to compare the different concentrations used for each compound and 5% DMSO (wt/v) to the control (1% DMSO(wt/v)).

Row | Structure (SMILES) | IC50 [1] [µM] | rate of food consumption between days 3-5 vs 1% DMSO (Caenorhabditis elegans)
1 | COc1cccc2c1Oc1nc(-c3ccccc3)[nH]c1C2 [MC350, 5-methoxy-2-phenyl-3,9-dihydrochromeno[2,3-d]imidazoles] | 2.52 | 
2 | COc1cccc2c1Oc1nc(-c3ccccc3F)[nH]c1C2C1c2cccc(OC)c2Oc2nc(-c3ccccc3F)[nH]c21 (centres unmarked) [MC369, 2,2′-bis(2-fluorophenyl)-5,5′-dimethoxy-1,1,9,9′-tetrahydro-9,9′-bichromeno[2,3-]imidazoles] | 2.52 | No statistical differences
3 | COc1cccc2c1Oc1nc(-c3ccc(F)cc3)[nH]c1C2C1c2cccc(OC)c2Oc2nc(-c3ccc(F)cc3)[nH]c21 (centres unmarked) [MC406, 2,2′-bis(4-fluorophenyl)-5,5′-dimethoxy-1,1,9,9′-tetrahydro-9,9′-bichromeno[2,3-]imidazoles] | 1.29 | No statistical differences
4 | COc1cccc2c1Oc1nc(-c3ccccc3F)[nH]c1C2 [MC407, 2-(2-fluorophenyl)-5-methoxy-3,9-dihydrochromeno[2,3-d]imidazoles] | 1.65 | No statistical differences
5 | COc1cccc2c1Oc1nc(-c3ccc(Br)cc3)[nH]c1C2 [MC408, 2-(4-bromophenyl)-5-methoxy-3,9-dihydrochromeno[2,3-d]imidazoles] | 2.56 | No statistical differences
6 | COc1cccc2c1Oc1nc(-c3ccc(F)cc3)[nH]c1C2 [MC409, 2-(4-fluorophenyl)-5-methoxy-3,9-dihydrochromeno[2,3-d]imidazoles] | 2.7 | No statistical differences
7 | COc1cccc2c1Oc1nc(-c3cc(F)cc(F)c3O)[nH]c1C2 [MC410, 2,4-difluoro-6-(5-methoxy-3,9-dihydrochromeno[2,3-d]imidazol-2-yl)phenol] | > 30 | 
8 | COc1ccccc1-c1nc2c([nH]1)Cc1cccc(OC)c1O2 [MC411, 5-methoxy-2-(2-methoxyphenyl)-3,9-dihydrochromeno[2,3-]imidazoles] | 1.78 | 
9 | COc1cccc2c1Oc1nc(-c3ccc(O)cc3)[nH]c1C2 [MC413, 4-(5-methoxy-3,9-dihydrochromeno[2,3-d]imidazol-2-yl)phenol] | 0.63 | 
10 | CCOc1ccc(-c2nc3c([nH]2)Cc2cccc(OC)c2O3)cc1 [MC415, 2-(4-ethoxyphenyl)-5-methoxy-3,9-dihydrochromeno[2,3-d]imidazoles] | 1.42 | 
11 | COc1cccc2c1Oc1nc(-c3ccc(Br)cc3)[nH]c1C2C1c2cccc(OC)c2Oc2nc(-c3ccc(Br)cc3)[nH]c21 (centres unmarked) [MC421, 2,2′-bis(4-bromophenyl)-5,5′-dimethoxy-1,1,9,9′-tetrahydro-9,9′-bichromeno[2,3-]imidazoles] | 2.96 | No statistical differences
